Structures are written as SMILES.

What is called IC50 is the midpoint of a concentration-inhibition curve. Read a low IC50 as greater potency.

In the first assay the test system is Shh-induced Gli-transcription. Put plainly: Gli-Luc assay in 10T1/2(s12) cells activated with OCT-SHH. It is filed as cell-based. The note with it: Gli-Luc response, OCT-SHH 0.3 μg/ml. As for the experimental part:
Compounds to be tested are dissolved in DMSO to a concentration of 10 mM, and stored at −20° C. To activate the Hedgehog pathway in the assay cells, an octylated (lipid-modified) form of the N-terminal fragment of the Sonic Hedgehog protein (OCT-SHH) is used. This N-terminal SHH fragment is produced bacterially.
Compounds may be tested in the “Gli-Luc” assay below, using the cell line 10T(s12), wherein the cells contain a Hedgehog-responsive reporter construct utilizing Luciferase as the reporter gene. In this way, Hedgehog pathway signaling activity can be measured via the Gli-Luc response.
10t1/2(s12) cells are plated in a 96-well micro-titer plate (MTP) at 20,000 cells/well in full medium [DMEM with 10% FBS]. Then plates are placed in the incubator for incubation overnight (O/N), at 37° C. and 5% CO2. After 24 h, the medium is replaced with Luciferase-assay medium (DMEM with 5% FBS). Compounds are thawed and diluted in assay medium at 3:1000 (about 300-fold) resulting in a starting concentration of about 30 μM.
Subsequently, 150 μl of each 30 μM sample is added to the first wells (in triplicate). The MTP samples are then diluted at 3-fold dilutions to a total of seven wells, ultimately resulting in a regiment of seven dilutions in triplicate, for each compound. Next, the protein ligand OCT-SHH is diluted in Luciferase-assay medium and added to each well at a final concentration of 0.3 μg/ml. Plates are then returned to the incubator for further incubation O/N, at 37° C. and 5% CO2. After about 24 h, plates are removed from the incubator and the medium is aspirated/discarded. Wells are washed once with assay buffer [PBS+1 mM Mg^2+ and 1 mM Ca^2+]. Then 50 μl of assay buffer is added to each well. The Luciferase assay reagent is prepared as described by the vendor (LucLite kit from Packard), and 50 μl is added to each well. Plates are incubated at room temperature (RT) for about 30 minutes after which the signals are read, again at RT, on a Topcount (Packard).
Compound `O=C(NCc1nc2ccccc2c(=O)n1-c1ccc(F)cc1)Nc1ccc(Cl)c(C(F)(F)F)c1` [Compound 5] registered an IC50 of under 0.1 µM.

The compound `CCCCCCCCC(=O)N(CCCCC)C(C)c1nc2ccccc2c(=O)n1-c1ccccc1` (stereo not drawn) [Compound 41] displayed a concentration for half-maximal inhibition (IC50) of under 10 µM. `COc1cccc(NC(=O)NCc2nc3ccccc3c(=O)n2-c2ccc(F)cc2)c1C` [Compound 71] displayed an IC50 of under 10 µM. `Cc1c(NC(=O)NCc2nc3ccccc3c(=O)n2-c2ccc(F)cc2)cccc1SC(F)(F)F` [Compound 67] yielded an IC50 of under 5 µM. The same measure, in the same setting: in the case of `CC(c1nc2ccccc2c(=O)n1-c1ccc(F)cc1)N(C)C(=O)Nc1ccc(SC(F)(F)F)cc1` (stereo not drawn) [Compound 60] it was under 5 µM; in that of `CCC(C)N(CCC(=O)NC1CCCc2ccccc21)C(=O)COc1ccc(Cl)cc1` (stereo not drawn) [Compound 49], under 1 µM; in that of `CC(c1nc2ccccc2c(=O)n1-c1ccc(F)cc1)N(C)C(=O)Nc1ccc(C(F)(F)F)cc1` (stereo not drawn) [Compound 54], under 5 µM.

`CC(c1nc2ccccc2c(=O)n1-c1ccc(F)cc1)N(C)C(=O)Nc1cccc(C(F)(F)F)c1` (stereo not drawn) [Compound 11] had a concentration for half-maximal inhibition (IC50) of under 5 µM. The same measure, in the same setting: to `CCC(c1nc2ccccc2c(=O)[nH]1)N1CCN(C(=O)Nc2ccc(Cl)c(Cl)c2)C(C)C1` (stereo not drawn) [Compound 45] belongs under 5 µM; to `CCCN(C(=O)Nc1cccc(C(F)(F)F)c1)C(C)c1nc2ccccc2c(=O)n1-c1ccc(F)cc1` (stereo not drawn) [Compound 36], under 5 µM. Consider `CCCN(C(=O)Nc1cccc(OC)c1)C(C)c1nc2ccccc2c(=O)n1-c1ccc(F)cc1` (stereo not drawn) [Compound 38], for which the half-maximal inhibitory concentration (IC50) is under 5 µM.

As for `O=C(NCc1nc2ccccc2c(=O)n1-c1ccc(F)cc1)Nc1ccc(Cl)c([N+](=O)[O-])c1` [Compound 69], the IC50 is under 0.5 µM. Same read-out and setting: in the case of `O=C(NCc1nc2ccccc2c(=O)n1-c1ccc(F)cc1)Nc1ccc(Cl)c(Cl)c1` [Compound 68] it was under 1 µM; in that of `CC(c1nc2ccccc2c(=O)n1-c1ccc(F)cc1)N(Cc1ccco1)C(=O)Nc1cccc(F)c1` (stereo not drawn) [Compound 31], under 10 µM; in that of `CCOC(=O)c1ccccc1NC(=O)N(C)C(C)c1nc2ccccc2c(=O)n1-c1ccc(F)cc1` (stereo not drawn) [Compound 63], under 10 µM. The same measure, in the same setting: in the case of `CCC(=O)N1CCN(C(CC)c2nc3ccccc3c(=O)n2-c2ccc(C)cc2)C(C)C1` (stereo not drawn) [Compound 42] it was under 5 µM; in that of `O=C(NCc1nc2ccccc2c(=O)n1-c1ccc(F)cc1)Nc1cc(Cl)nc(Cl)c1` [Compound 6], under 0.5 µM. For the compound `CC(c1nc2ccccc2c(=O)n1-c1ccc(F)cc1)N(C)C(=O)Nc1ccc(Cl)c(C(F)(F)F)c1` (stereo not drawn) [Compound 61], the half-maximal inhibitory concentration (IC50) is under 1 µM. As for `O=C(Cc1cccc(C(F)(F)F)c1)NCCc1nc2ccccc2c(=O)n1-c1ccc(F)cc1` [Compound 50], the IC50 was under 1 µM. The same measure, in the same setting: to `CC(c1nc2ccccc2c(=O)n1-c1ccc(F)cc1)N(C)C(=O)Nc1ccc(Cl)cc1[N+](=O)[O-]` (stereo not drawn) [Compound 66] belongs under 10 µM; to `CC(c1nc2ccccc2c(=O)n1-c1ccc(F)cc1)N(C)C(=O)Nc1cccc(SC(F)(F)F)c1` (stereo not drawn) [Compound 52], under 1 µM. In the case of `CC(c1nc2ccccc2c(=O)n1-c1ccc(F)cc1)N(C)C(=O)Nc1ccc(Cl)c(Cl)c1` (stereo not drawn) [Compound 53], the IC50 is under 1 µM. On the same count and under the same terms, to `CCCCc1ccc(C(=O)N(Cc2ccccc2)C(CC)c2nc3ccccc3c(=O)n2-c2ccc(C)cc2)cc1` (stereo not drawn) [Compound 40] belongs under 10 µM. Same read-out and setting: in the case of `CC(c1nc2ccccc2c(=O)n1-c1ccc(F)cc1)N(C)C(=O)Nc1ccc([N+](=O)[O-])cc1Cl` (stereo not drawn) [Compound 64] it was under 10 µM.

Turning to `Cc1c(NC(=O)N(C)C(C)c2nc3ccccc3c(=O)n2-c2ccc(F)cc2)cccc1[N+](=O)[O-]` (stereo not drawn) [Compound 59], the half-inhibitory concentration (IC50) was under 5 µM. `CC(C)c1cccc(NC(=O)N(C)C(C)c2nc3ccccc3c(=O)n2-c2ccc(F)cc2)c1` (stereo not drawn) [Compound 57] returned an IC50 of under 10 µM. For `CC(c1nc2ccccc2c(=O)n1-c1ccc(F)cc1)N(C)C(=O)Nc1cccc(C#N)c1` (stereo not drawn) [Compound 51], the IC50 was under 5 µM. In the case of `CC(c1nc2ccccc2c(=O)n1-c1ccc(F)cc1)N(C)C(=O)Nc1ccc([N+](=O)[O-])c(Cl)c1` (stereo not drawn) [Compound 62], the half-inhibitory concentration (IC50) was under 1 µM. In the case of `CCOOC(=O)c1cccc(NC(=O)N(C)C(C)c2nc3ccccc3c(=O)n2-c2ccc(F)cc2)c1` (stereo not drawn) [Compound 65], the IC50 is under 10 µM. On the same count and under the same terms, to `CC(c1nc2ccccc2c(=O)n1-c1ccc(F)cc1)N(C)C(=O)Nc1cc(Cl)nc(Cl)c1` (stereo not drawn) [Compound 58] belongs under 5 µM; to `CC(c1nc2ccccc2c(=O)n1-c1ccc(F)cc1)N(C)C(=O)Nc1ccc(-c2ccccc2)cc1` (stereo not drawn) [Compound 56], under 10 µM; to `CCC(c1nc2ccccc2c(=O)n1-c1ccc(C)cc1)N(CCc1ccccc1)C(=O)CCCCF` (stereo not drawn) [Compound 39], under 5 µM. As for `CCC(C)N(CCC(=O)NC1CCCc2ccccc21)C(=O)c1cccc2ccccc12` (stereo not drawn) [Compound 48], the IC50 is under 0.5 µM.

Take `CC(NC(=O)Nc1cccc(C(F)(F)F)c1)c1nc2ccccc2c(=O)n1-c1ccc(F)cc1` (stereo not drawn) [Compound 73]: the IC50 is under 5 µM. The same measure, in the same setting: to `O=C(Nc1cccc(C(F)(F)F)c1)NC(c1nc2ccccc2c(=O)n1-c1ccc(F)cc1)C1CC1` (stereo not drawn) [Compound 75] belongs under 5 µM. The same measure, in the same setting: in the case of `CCCN(C(=O)Nc1cccc(Cl)c1)C(C)c1nc2ccccc2c(=O)n1-c1ccc(F)cc1` (stereo not drawn) [Compound 34] it was under 5 µM; in that of `O=C(NCc1nc2ccccc2c(=O)n1-c1ccc(F)cc1)Nc1cccc(C(F)(F)F)c1` [Compound 44], under 1 µM; in that of `CC(c1nc2ccccc2c(=O)n1-c1ccc(F)cc1)N(C)C(=O)Nc1cccc(F)c1` (stereo not drawn) [Compound 55], under 5 µM. Still for that read-out and setting: in the case of `O=C(NCCCc1nc2ccccc2c(=O)n1-c1ccc(F)cc1)Nc1cccc(C(F)(F)F)c1` [Compound 74] it was under 5 µM; in that of `CCC(c1nc2ccccc2c(=O)[nH]1)N1CCN(C(=O)c2ccc(-c3ccccc3)cc2)C(C)C1` (stereo not drawn) [Compound 46], under 0.5 µM. `CCCN(CCC(=O)NC1CCCc2ccccc21)C(=O)c1cc(OC)cc(OC)c1` (stereo not drawn) [Compound 47]: the IC50 was under 5 µM. Still for that read-out and setting: to `CC(c1nc2ccccc2c(=O)n1-c1ccc(F)cc1)N1CCN(C(=O)Nc2ccc(Cl)c(Cl)c2)CC1` (stereo not drawn) [Compound 43] belongs under 10 µM; to `CC(c1nc2ccccc2c(=O)n1-c1ccc(F)cc1)N(C)C(=O)Nc1ccc([N+](=O)[O-])c(C(F)(F)F)c1` (stereo not drawn) [Compound 32], under 5 µM.

A further assay relates to hedgehog signaling in embryonic mouse lungs. Description: embryonic mouse lung explants, Q-RT-PCR of gli-1 and Sp-C. The assay is classed as cell-based. The note with it: E13.5 mouse lung explants, Q-RT-PCR normalized to GAPDH. The procedure: METHODS: E13.5 embryonic mouse lungs were dissected. Explants were grown exposed to the air-liquid interface in lung explant medium (DMEM based, additives optimized for the culture of mouse lungs) for 67 hrs. They were then processed for quantitative real-time PCR (Q-RT-PCR). Briefly, total ribonucleic acid (RNA) is isolated from the tissue and subjected to reverse transcription to generate DNA. This DNA is amplified in a polymerase chain reaction using gene-specific primers as well as primers for the ubiquitously expressed housekeeping gene GAPDH. The two primer sets are labeled with different fluorophores, allowing for quantification of both signals in the same reaction tube in a real-time PCR machine (TaqMan). When calculating the expression level of gli-1, the specific signal is normalized to the GAPDH signal, which serves as a measure of the total DNA used in the reaction.
METHODS: E13.5 old embryonic mouse lungs were dissected. Explants were grown submerged in lung explant medium (DMEM based, additives optimized for the culture of mouse lungs) for 50 hrs. They were then processed for Q-RT-PCR. Briefly, total ribonucleic acid (RNA) is isolated from the tissue and subjected to reverse transcription to generate DNA. […] The two primer sets are labeled with different fluorophores, allowing for quantification of both signals in the same reaction tube in a real-time PCR machine (TaqMan). […]
In the case of `C[C@]12CCC(=O)C=C1CC[C@@H]1[C@@H]2[C@@H](O)C[C@@]2(C)[C@H]1CC[C@]2(O)C(=O)CO` [hydrocortisone], the “surfactant type C (Sp-C) expression” value was “comparable”.

A further assay concerns Shh signaling pathway in MEFs homozygous for ptc-lacZ. Description: β-galactosidase activity in ptc-lacZ mouse embryonic fibroblasts. It is filed as cell-based. The conditions noted are these: MEFs homozygous for ptc-lacZ (cell line 23-1), normalized to whole protein content.
From the text: The Shh signaling pathway can be activated in these fibroblasts in cell culture, and that the level of β-galactosidase activity does reflect the degree of pathway activation.
Regarding `C[C@H]1CC[C@]2(NC1)O[C@H]1C[C@H]3[C@@H]4CC[C@H]5C[C@@H](O)CC[C@]5(C)[C@H]4CC[C@]3(C)[C@H]1[C@@H]2C` [tomatidine], the β-galactosidase activity entry is given as “non-inhibitory”.

The record behind these values is patent publication US7708998B2, “Methods of inhibiting unwanted cell proliferation using hedgehog antagonists” (Curis, Inc., priority 2000, dated 2010).
